From patent US11753363B2, “13-oxidized ingenol derivative and use thereof” (Tianjin Pharmaceutical Da Ren Tang Group Corp., Ltd. …, priority 2017, dated 2023)
≈ marks a conversion by molar mass, not a printed value.

Assays:
[1] = tested on: A549 (human lung cancer cells); assay: Inhibition of proliferation of tumor cell lines (MTT), A549; format: cell-based; conditions: Homo sapiens, A549, 72 h, read-out: IC50 value of compound for inhibition of proliferation of tumor cell lines, A549
Method in brief: (§1)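 Cells are plated at about 1×10^5·mL^−1, left to adhere for 24 h, and incubated with serial compound concentrations for 72 h. Viability is measured by MTT reduction (4 h) with absorbance at 570 nm, and IC50 is derived from regression of inhibition rate on log concentration.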

[2] = tested on: BGC-823 (human gastric cancer cells); assay: Inhibition of proliferation of tumor cell lines (MTT), BGC-823; format: cell-based; conditions: Homo sapiens, BGC-823, 72 h, read-out: IC50 value of compound for inhibition of proliferation of tumor cell lines, BGC-823
Method in brief: as §1

[3] = tested on: LOVO (human colon cancer cells); assay: Inhibition of proliferation of tumor cell lines (MTT), LOVO; format: cell-based; conditions: Homo sapiens, 72 h, read-out: IC50 value of compound for inhibition of proliferation of tumor cell lines, LOVO
Method in brief: as §1

[4] = tested on: K562 (human leukemia cells); assay: Inhibition of proliferation of tumor cell lines (MTT), K562; format: cell-based; conditions: Homo sapiens, K562, 72 h, read-out: IC50 value of compound for inhibition of proliferation of tumor cell lines, K562
Method in brief: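 Cells in RPMI 1640 with 10% calf serum; adherent lines seeded at about 1×10^5/mL and attached 24 h, K562 at 2×10^5/mL. Compounds added in quadruplicate, 72 h at 37 °C, 5% CO2; MTT 4 h, DMSO-dissolved formazan read at 570 nm. IC50 from log-concentration versus inhibition-rate regression.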

[5] = tested on: SMMC-7721 (human liver cancer cells); assay: Inhibition of proliferation of tumor cell lines (MTT), SMMC-7721; format: cell-based; conditions: Homo sapiens, SMMC-7721, 72 h, read-out: IC50 value of compound for inhibition of proliferation of tumor cell lines, SMMC-7721
Method in brief: as §1

[6] = tested on: MCF-7 (human breast cancer cells); assay: Inhibition of proliferation of tumor cell lines (MTT), MCF-7; format: cell-based; conditions: Homo sapiens, MCF7, MCF-7, 72 h, read-out: IC50 value of compound for inhibition of proliferation of tumor cell lines, MCF-7
Method in brief: as §1

[7] = tested on: HeLa (human cervical cancer cells); assay: Inhibition of proliferation of tumor cell lines (MTT), HeLa; format: cell-based; conditions: Homo sapiens, 72 h, read-out: IC50 value of compound for inhibition of proliferation of tumor cell lines, HeLA
Method in brief: as §1

[8] = tested on: mouse B16-F10 melanoma cells; assay: Inhibition of proliferation of tumor cell lines (MTT), B16-F10; format: cell-based; conditions: Mus musculus, B16-F10, 72 h, read-out: IC50 value of compound for inhibition of proliferation of tumor cell lines, B16-F10
Method in brief: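 IC50 came from regressing inhibition rate against log concentration, using MTT absorbance at 570 nm after 4 h with the dye. Before that, B16-F10 cells seeded at about 1×10^5/mL in RPMI 1640 plus 10% calf serum had 72 h of compound, four wells per concentration, after 24 h attachment.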

[9] = tested on: neutrophilic granulocytes; assay: Neutrophil oxidative burst (luminol chemiluminescence); format: cell-based; conditions: Neutrophil; 3 μg/mL; rat neutrophils; (Csample−Ccontrol)/Ccontrol×100%; read-out: Efficiency of compounds in stimulating neutrophil oxidative burst
Method in brief: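 Efficiency (%) is (Csample−Ccontrol)/Ccontrol×100%, from luminol chemiluminescence (1 mM stock). Cells were rat peripheral-blood neutrophils from the abdominal aorta, in Hanks, 1×10^5 per well.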

[10] = tested on: release of IL-8 by human keratinocytes (HaCaT); assay: Release of IL-8 by human keratinocytes (HaCaT), IL-8 Elisa; format: cell-based; conditions: Homo sapiens, HaCaT; 0.1 μg/mL; 24 h; (Csample−Ccontrol)/Ccontrol×100%; read-out: Efficiency of compound in stimulating the release of IL-8 by HaCaT cells
Method in brief: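 IL-8 in supernatants was quantified by ELISA after 24 h compound treatment at several concentrations and expressed as % efficiency, (Csample − Ccontrol)/Ccontrol × 100%. Cells were plated at 1×10^4/well in MEM + 10% FBS and serum-reduced to 1% FBS for 3-6 h before dosing.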

B16-F0 mouse melanoma = assay: Antitumor activity in B16-F0 mouse melanoma model; format: in vivo; conditions: female C57BL/6J mice, intradermal B16 tumor, skin administration once per day for 3 days, 20 μL/mouse, tumor weight on day 19
Experimental: This Example investigated the antitumor activity of compounds in B16-F0 mouse melanoma model.
In vitro passage of B16-F0 tumor source was inoculated subcutaneously into female C57BL/6J mice, and passage was carried out after tumor formation. After passage, the subcutaneous tumor tissue of the tumor-bearing mice was taken and ground with 3 times amount of physiological saline to form a tumor cell suspension, and 0.2 mL/mouse of which was inoculated subcutaneously into the axilla of forelimb of mice, which were used as the tumor-source mice. Female C57BL/6J mice were taken and their hair in an area of 4 cm^2 on the neck and back was shaven. After anesthesia with diethyl ether, B16 tumor source was inoculated intradermally at 0.05 mL/mouse. After 3 days of inoculation, the skin was continuously administered for 3 days, once per day, 20 μL/mouse each time, and in the test, a solvent group as a negative control group was included. On the 19th day of the experiment, the experiment was terminated. After the mice were euthanized, the intradermally transplanted tumors were completely separated and excised, and the tumor was weighed to calculate the tumor inhibition rate. Calculation formula of tumor inhibition rate: tumor inhibition rate (%)=(Wmodel group−Wadministration group)/Wmodel group×100%
The tumor growths of the experimental group and the solvent control group were compared to evaluate the antitumor activity of each compound, and the compound with P<0.05 was considered to be effective.

C/C=C(/C)C(=O)O[C@H]1C(C)=C[C@]23C(=O)[C@@H](C=C(CO)[C@@H](O)[C@]12O)[C@@H]1C(C)(C)[C@]1(OC(=O)CCC)C[C@H]3C [Compound 16, 3-O-angeloyl-13-O-butanoyl-ingenol]
IC50 [1]: 46.8 µg/mL (≈ 90.6 µM) | IC50 [2]: 44.1 µg/mL (≈ 85.4 µM) | IC50 [3]: 36.9 µg/mL (≈ 71.4 µM) | IC50 [4]: 4.21 µg/mL (≈ 8.15 µM) | IC50 [5]: 43.5 µg/mL (≈ 84.2 µM) | IC50 [6]: 38.4 µg/mL (≈ 74.3 µM) | IC50 [7]: 61.1 µg/mL (≈ 118 µM) | IC50 [8]: 17 µg/mL (≈ 32.9 µM) | activation at 3 µg/mL [9]: 80.1% | activation at 0.1 µg/mL [10]: 84.6% | Tumor-inhibition rate (B16-F0 mouse melanoma): 89.6%
